This note sets out measurements from US12139492B2 (Endotarget Inc., priority 2021, dated 2024).

Common to all, as to format: cell-based
One test has as its target BTK (Homo sapiens, UniProt Q06187). In words: BTK degradation, DC50 and Dmax of Table 1 (cell line not given). Also on record: endogenous in cells. The following applies: for DC50: concentration giving 50% reduction of BTK expression level.
The next test has as its system Mino cells. In words: Antiproliferative effect, MTS cell viability assay, Mino cells. Particulars: Homo sapiens, MINO, Mino mantle cell lymphoma cells; read-out: IC50 (anti-proliferation) Mino cells. In outline: (§1)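 Mino and JeKo-1 mantle B-cell lymphoma lines were exposed to compound at 0, 0.001, 0.01, 0.1, 1 and 10 μM for 72 h. Viability was read by MTS reduction to formazan, measured as absorbance at 490 nm.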
For orientation: Tetrazolium dyes change colour on reduction, which living cells bring about.

The next test relates to JeKo-1 cells. As to the kind of experiment: Antiproliferative effect, MTS cell viability assay, JeKo-1 cells. The following applies: Homo sapiens; JeKo-1 mantle cell lymphoma cells; read-out: IC50 (anti-proliferation) JeKO-1 cells. The essentials:
as §1

Chain of BTK (Q06187 whole entry): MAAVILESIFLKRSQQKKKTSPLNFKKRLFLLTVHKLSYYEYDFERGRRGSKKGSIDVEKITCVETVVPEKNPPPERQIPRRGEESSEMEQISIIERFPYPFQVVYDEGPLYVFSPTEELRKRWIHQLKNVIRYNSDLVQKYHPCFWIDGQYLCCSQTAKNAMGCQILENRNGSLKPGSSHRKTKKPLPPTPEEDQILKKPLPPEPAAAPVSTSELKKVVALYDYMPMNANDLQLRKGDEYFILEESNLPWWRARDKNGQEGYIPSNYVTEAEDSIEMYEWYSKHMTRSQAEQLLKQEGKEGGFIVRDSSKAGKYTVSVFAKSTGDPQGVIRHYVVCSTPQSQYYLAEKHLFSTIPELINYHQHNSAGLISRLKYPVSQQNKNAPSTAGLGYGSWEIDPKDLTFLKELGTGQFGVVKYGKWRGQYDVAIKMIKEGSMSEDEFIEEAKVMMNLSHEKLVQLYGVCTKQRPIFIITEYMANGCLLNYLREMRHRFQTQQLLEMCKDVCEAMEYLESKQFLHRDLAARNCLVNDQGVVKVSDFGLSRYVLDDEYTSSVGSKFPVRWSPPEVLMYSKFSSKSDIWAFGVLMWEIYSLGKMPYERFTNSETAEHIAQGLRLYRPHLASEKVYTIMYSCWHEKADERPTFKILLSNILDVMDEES

What is called Dmax is the greatest extent of degradation seen. Higher therefore signals deep degradation. As a reminder, the DC50 is the concentration giving 50% degradation. As for `Nc1ncnc2c1c(-c1ccc(Oc3ccccc3)cc1)nn2[C@@H]1CCCN(C2CCN(C(=O)N3CCC(CCCN4CCN(c5ccc6c(c5)C(=O)N(C5CCC(=O)NC5=O)C6=O)CC4)CC3)CC2)C1` (stereo partly drawn) [Compound 193, 5-(4-(3-(1-((R)-3-(4-amino-3-(4-phenoxyphenyl)-1H-pyrazolo[3,4-d]pyrimidin-1-yl)-[1,4′-bipiperidine]-1′-carbonyl)piperidin-4-yl)propyl)piperazin-1-yl)-2-(2,6-dioxopiperidin-3-yl)isoindoline-1,3-dione], at BTK, the Dmax is more than 50% and the DC50 was 0.01 to 0.05 µM. Besides, the IC50 with Mino cells lay within 1 to 10 µM. Also, the IC50 with JeKo-1 cells is more than 10 µM.

As for `Nc1ncnc2c1c(-c1ccc(Oc3ccccc3)cc1)nn2[C@@H]1CCCN(C(=O)N2CCC(CCCN3CCN(c4ccc5c(c4)C(=O)N(C4CCC(=O)NC4=O)C5=O)CC3)CC2)C1` (stereo partly drawn) [Compound 105, 5-(4-(3-(1-((R)-3-(4-amino-3-(4-phenoxyphenyl)-1H-pyrazolo[3,4-d]pyrimidin-1-yl)piperidine-1-carbonyl)piperidin-4-yl)propyl)piperazin-1-yl)-2-(2,6-dioxopiperidin-3-yl)isoindoline-1,3-dione], at BTK, the Dmax was more than 75% and the DC50 was more than 0.05 µM. In addition, the IC50 in the test on Mino cells was more than 10 µM. The IC50 in the test on JeKo-1 cells was more than 10 µM.

For the molecule `Nc1ncnc2c1c(-c1ccc(Oc3ccccc3)cc1)nn2[C@@H]1CCCN(C2CCN(C(=O)N3CCC(CCN4CCN(c5ccc6c(c5)CN(C5CCC(=O)NC5=O)C6=O)CC4)CC3)CC2)C1` (stereo partly drawn) [Compound 182, 3-(5-(4-(2-(1-((R)-3-(4-amino-3-(4-phenoxyphenyl)-1H-pyrazolo[3,4-d]pyrimidin-1-yl)-[1,4′-bipiperidine]-1′-carbonyl)piperidin-4-yl)ethyl)piperazin-1-yl)-1-oxoisoindolin-2-yl)piperidine-2,6-dione], on BTK, the Dmax was more than 75% and the DC50 fell in the range of 0.01 to 0.05 µM. Moreover, the IC50 in the test on Mino cells was in the range of 1 to 10 µM. In the test on JeKo-1 cells, the IC50 lay in the range of 1 to 10 µM.

On BTK, `Nc1ncnc2c1c(-c1ccc(Oc3ccccc3)cc1)nn2C1CCN(CCOCCOCCN2CCC(c3ccc4c(c3)C(=O)N(C3CCC(=O)NC3=O)C4=O)CC2)CC1` (stereo not drawn) [Compound 9, 5-(1-(2-(2-(2-(4-(4-amino-3-(4-phenoxyphenyl)-1H-pyrazolo[3,4-d]pyrimidin-1-yl)piperidin-1-yl)ethoxy)ethoxy)ethyl)piperidin-4-yl)-2-(2,6-dioxopiperidin-3-yl)isoindoline-1,3-dione] yielded a Dmax of more than 90% and a half-maximal degradation concentration (DC50) of less than 0.01 µM. Further, the IC50 in the test with Mino cells was in the range of 1 to 10 µM. In the test on JeKo-1 cells, the IC50 is 1 to 10 µM.

At BTK, `Nc1ncnc2c1c(-c1ccc(Oc3ccccc3)cc1)nn2C1CCN(C(=O)N2CCC(CC3CCN(c4ccc5c(c4)CN(C4CCC(=O)NC4=O)C5=O)CC3)CC2)CC1` (stereo not drawn) [Compound 90, 3-(5-(4-((1-(4-(4-amino-3-(4-phenoxyphenyl)-1H-pyrazolo[3,4-d]pyrimidin-1-yl)piperidine-1-carbonyl)piperidin-4-yl)methyl)piperidin-1-yl)-1-oxoisoindolin-2-yl)piperidine-2,6-dione] had a Dmax of more than 90% and a DC50 of less than 0.01 µM. Further, the IC50 in the test with Mino cells was in the range of 1 to 10 µM. Also, the IC50 in the test on JeKo-1 cells lay in the range of 1 to 10 µM.

At BTK, `Nc1ncnc2c1c(-c1ccc(Oc3ccccc3)cc1)nn2C1CCN(C(=O)N2CCC(CCN3CCC(c4ccc5c(c4)C(=O)N(C4CCC(=O)NC4=O)C5=O)CC3)CC2)CC1` (stereo not drawn) [Compound 103, 5-(1-(2-(1-(4-(4-amino-3-(4-phenoxyphenyl)-1H-pyrazolo[3,4-d]pyrimidin-1-yl)piperidine-1-carbonyl)piperidin-4-yl)ethyl)piperidin-4-yl)-2-(2,6-dioxopiperidin-3-yl)isoindoline-1,3-dione] showed a Dmax of more than 90% and a DC50 of 0.01 to 0.05 µM. Moreover, the IC50 in the test on Mino cells was more than 10 µM. In the test with JeKo-1 cells, the IC50 lay in the range of 1 to 10 µM.

Consider `Nc1ncnc2c1c(-c1ccc(Oc3ccccc3)cc1)nn2[C@@H]1CCCN(C2CCN(C(=O)N3CCC(N4CCC(c5ccc6c(c5)CN(C5CCC(=O)NC5=O)C6=O)CC4)CC3)CC2)C1` (stereo partly drawn) [Compound 166, 3-(5-(1′-((R)-3-(4-amino-3-(4-phenoxyphenyl)-1H-pyrazolo[3,4-d]pyrimidin-1-yl)-[1,4′-bipiperidine]-1′-carbonyl)-[1,4′-bipiperidin]-4-yl)-1-oxoisoindolin-2-yl)piperidine-2,6-dione], for which, at BTK, the Dmax is more than 90%. On BTK, the DC50 was 0.01 to 0.05 µM. The IC50 in the test on Mino cells was 1 to 10 µM; in the test with JeKo-1 cells it was more than 10 µM.

On BTK, `Nc1ncnc2c1c(-c1ccc(Oc3ccccc3)cc1)nn2C1CCN(CC2CCN(C(=O)N3CCC(CN4CCN(c5ccc6c(c5)CN(C5CCC(=O)NC5=O)C6=O)CC4)CC3)CC2)CC1` (stereo not drawn) [Compound 42, 3-(5-(4-((1-(4-((4-(4-amino-3-(4-phenoxyphenyl)-1H-pyrazolo[3,4-d]pyrimidin-1-yl)piperidin-1-yl)methyl)piperidine-1-carbonyl)piperidin-4-yl)methyl)piperazin-1-yl)-1-oxoisoindolin-2-yl)piperidine-2,6 dione] had a Dmax of more than 90% and a DC50 of 0.01 to 0.05 µM. For the same molecule, in the test on Mino cells, the IC50 was less than 1 µM. Moreover, in the test with JeKo-1 cells, the IC50 was less than 1 µM.

Turning to `Nc1ncnc2c1c(-c1ccc(Oc3ccccc3)cc1)nn2[C@@H]1CCCN(C2CCN(CC3CCN(c4ccc5c(c4)CN(C4CCC(=O)NC4=O)C5=O)CC3)CC2)C1` (stereo partly drawn) [Compound 144, 3-(5-(4-(((R)-3-(4-amino-3-(4-phenoxyphenyl)-1H-pyrazolo[3,4-d]pyrimidin-1-yl)-[1,4′-bipiperidin]-1′-yl)methyl)piperidin-1-yl)-1-oxoisoindolin-2-yl)piperidine-2,6-dione], on BTK, the greatest degradation seen (Dmax) is more than 90% and the DC50 was 0.01 to 0.05 µM. Besides, the IC50 in the test with Mino cells is 1 to 10 µM. Also, in the test with JeKo-1 cells, the IC50 is more than 10 µM.

At BTK, `Nc1ncnc2c1c(-c1ccc(Oc3ccccc3)cc1)nn2C1CCN(C(=O)N2CCN(c3ccc4c(c3)CN(C3CCC(=O)NC3=O)C4=O)CC2)CC1` (stereo not drawn) [Compound 76, 3-(5-(4-(4-(4-amino-3-(4-phenoxyphenyl)-1H-pyrazolo[3,4-d]pyrimidin-1-yl)piperidine-1-carbonyl)piperazin-1-yl)-1-oxoisoindolin-2-yl)piperidine-2,6-dione] gave a Dmax of more than 50%. This molecule also yielded a DC50 at BTK of more than 0.05 µM. Also, the IC50 in the test on Mino cells and with JeKo-1 cells was more than 10 µM each time.

`Nc1ncnc2c1c(-c1ccc(Oc3ccccc3)cc1)nn2[C@@H]1CCCN(C(=O)N2CCN(CCC3CCN(c4ccc5c(c4)C(=O)N(C4CCC(=O)NC4=O)C5=O)CC3)CC2)C1` (stereo partly drawn) [Compound 67, 5-(4-(2-(4-((R)-3-(4-amino-3-(4-phenoxyphenyl)-1H-pyrazolo[3,4-d]pyrimidin-1-yl)piperidine-1-carbonyl)piperazin-1-yl)ethyl)piperidin-1-yl)-2-(2,6-dioxopiperidin-3-yl)isoindoline-1,3-dione] gave a Dmax at BTK of more than 90%. This molecule registered a DC50 at BTK of less than 0.01 µM. Besides, the IC50 with Mino cells and in the test with JeKo-1 cells was 1 to 10 µM throughout.

At BTK, `Nc1ncnc2c1c(-c1ccc(Oc3ccccc3)cc1)nn2[C@@H]1CCCN(C(=O)N2CCN(CCCC3CCN(c4ccc5c(c4)C(=O)N(C4CCC(=O)NC4=O)C5=O)CC3)CC2)C1` (stereo partly drawn) [Compound 109, 5-(4-(3-(4-((R)-3-(4-amino-3-(4-phenoxyphenyl)-1H-pyrazolo[3,4-d]pyrimidin-1-yl)piperidine-1-carbonyl)piperazin-1-yl)propyl)piperidin-1-yl)-2-(2,6-dioxopiperidin-3-yl)isoindoline-1,3-dione] gave a Dmax of more than 75% and a DC50 of more than 0.05 µM. Besides, in the test with Mino cells, the IC50 was more than 10 µM. Besides, the IC50 with JeKo-1 cells was more than 10 µM.

For `Nc1ncnc2c1c(-c1ccc(Oc3ccccc3)cc1)nn2[C@@H]1CCCN(CC2CCN(CCCC3CCN(c4ccc5c(c4)CN(C4CCC(=O)NC4=O)C5=O)CC3)CC2)C1` (stereo partly drawn) [Compound 142, 3-(5-(4-(3-(4-(((R)-3-(4-amino-3-(4-phenoxyphenyl)-1H-pyrazolo[3,4-d]pyrimidin-1-yl)piperidin-1-yl)methyl)piperidin-1-yl)propyl)piperidin-1-yl)-1-oxoisoindolin-2-yl)piperidine-2,6-dione], at BTK, the Dmax is more than 75% and the DC50 lay in the range of 0.01 to 0.05 µM. In addition, the IC50 in the test on Mino cells was in the range of 1 to 10 µM. Besides, the IC50 in the test with JeKo-1 cells is more than 10 µM.

With `Nc1ncnc2c1c(-c1ccc(Oc3ccccc3)cc1)nn2[C@@H]1CCCN(C(=O)N2CCN(CCCN3CCC(c4ccc5c(c4)C(=O)N(C4CCC(=O)NC4=O)C5=O)CC3)CC2)C1` (stereo partly drawn) [Compound 111, 5-(1-(3-(4-((R)-3-(4-amino-3-(4-phenoxyphenyl)-1H-pyrazolo[3,4-d]pyrimidin-1-yl)piperidine-1-carbonyl)piperazin-1-yl)propyl)piperidin-4-yl)-2-(2,6-dioxopiperidin-3-yl)isoindoline-1,3-dione], the Dmax at BTK is more than 75%. Besides, the DC50 on BTK was more than 0.05 µM. Besides, the IC50 with Mino cells and in the test with JeKo-1 cells was 1 to 10 µM in each case.

In the case of `Nc1ncnc2c1c(-c1ccc(Oc3ccccc3)cc1)nn2[C@@H]1CCCN(C2CCN(C(=O)N3CCC(CC4CCN(c5ccc6c(c5)C(=O)N(C5CCC(=O)NC5=O)C6=O)CC4)CC3)CC2)C1` (stereo partly drawn) [Compound 167, 5-(4-((1-((R)-3-(4-amino-3-(4-phenoxyphenyl)-1H-pyrazolo[3,4-d]pyrimidin-1-yl)-[1,4′-bipiperidine]-1′-carbonyl)piperidin-4-yl)methyl)piperidin-1-yl)-2-(2,6-dioxopiperidin-3-yl)isoindoline-1,3-dione], on BTK, the Dmax was more than 90% and the DC50 was in the range of 0.01 to 0.05 µM. Moreover, the IC50 in the test on Mino cells was in the range of 1 to 10 µM. In addition, the IC50 in the test with JeKo-1 cells lay in the range of 1 to 10 µM.
